Starred links: 1 amine or outer side, 2 acyl side, 3 side chain; linkers in the order of their positions; H or OH if unused. Non-standard residues stand in square brackets, D forms with d. Residues, ends and D or L forms follow the SMILES beside them. Groups on a side chain read outwards from the residue. *: point of attachment. C18 diacid = O=C(O)CCCCCCCCCCCCCCCCC(=O)*; γGlu = O=C(O)[C@H](CCC(=O)[*:2])N[*:1]; αMeF = C[C@](N)(Cc1ccccc1)C(=O)O; AEEA = NCCOCCOCC(=O)O; Aib = CC(C)(N)C(=O)O

For experiment [1], the target named is human glucagon receptor (hGCGR) (Homo sapiens, UniProt P47871). The experiment in a line: cAMP production (HTRF) in CHO cells expressing hGCGR. Particulars: Table 6, peptides modified at position 17; cAMP in CHO hGCGR cells; geometric mean; read-out: hGluc-R EC50. The arrangement: expressed in transfected cells. The format is cell-based. An outline of the steps:
(§1)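 Read-out: HTRF cAMP (anti-cAMP cryptate donor, cAMP-d2 acceptor in conjugate/lysis buffer), converted to % Delta F and fitted by 4-parameter logistic for EC50. Cell densities were 1×10^5 cells/mL (hGLP-1R) or 2×10^5 cells/mL (hGCGR). Stimulation lasted 30 min at room temperature.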
On the technique in general: Cyclic AMP is a second messenger, typically raised through Gs and lowered through Gi signalling.

Experiment [2] deals with human GLP-1 receptor (hGLP-1R) (Homo sapiens, UniProt P43220). The experiment in a line: cAMP production (HTRF) in CHO cells expressing hGLP-1R. The format is cell-based. The arrangement: expressed in transfected cells. Particulars: for EC50: Table 6, peptides modified at position 17, cAMP in CHO hGLP-1R cells, geometric mean, read-out: hGLP-1R EC50; for % Relative Potency Ratio: Table 6, % GLP-1R activity relative to GLP-1 / % GlucR activity relative to glucagon. An outline of the steps: as §1
Chain of human GLP-1 receptor (hGLP-1R) (P43220 24-463): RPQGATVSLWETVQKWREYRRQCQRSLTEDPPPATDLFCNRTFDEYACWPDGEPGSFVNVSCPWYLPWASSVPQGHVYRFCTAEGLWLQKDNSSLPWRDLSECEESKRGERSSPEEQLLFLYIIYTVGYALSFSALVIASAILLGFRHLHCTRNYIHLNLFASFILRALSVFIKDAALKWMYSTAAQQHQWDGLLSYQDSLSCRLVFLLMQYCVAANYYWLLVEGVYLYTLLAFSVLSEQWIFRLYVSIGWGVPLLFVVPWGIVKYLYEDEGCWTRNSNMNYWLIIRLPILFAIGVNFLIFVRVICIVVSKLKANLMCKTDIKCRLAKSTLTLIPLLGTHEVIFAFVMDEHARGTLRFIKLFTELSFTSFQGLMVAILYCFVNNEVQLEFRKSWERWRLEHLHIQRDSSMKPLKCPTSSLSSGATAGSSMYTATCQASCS

Chain of human glucagon receptor (hGCGR) (P47871 26-477): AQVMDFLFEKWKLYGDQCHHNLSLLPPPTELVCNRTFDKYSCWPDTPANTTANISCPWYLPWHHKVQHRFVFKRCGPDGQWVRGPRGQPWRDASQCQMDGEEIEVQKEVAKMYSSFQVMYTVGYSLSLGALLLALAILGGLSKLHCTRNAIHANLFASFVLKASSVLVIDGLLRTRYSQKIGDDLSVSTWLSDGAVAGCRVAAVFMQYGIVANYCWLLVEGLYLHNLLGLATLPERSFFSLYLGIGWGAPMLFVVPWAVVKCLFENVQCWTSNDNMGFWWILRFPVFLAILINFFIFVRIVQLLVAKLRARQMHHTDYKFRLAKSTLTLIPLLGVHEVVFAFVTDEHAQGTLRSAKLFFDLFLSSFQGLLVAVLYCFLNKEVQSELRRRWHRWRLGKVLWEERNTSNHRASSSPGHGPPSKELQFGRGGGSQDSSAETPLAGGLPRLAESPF

Consider `CC(C)C[C@H](NC(=O)[C@H](Cc1c[nH]c2ccccc12)NC(=O)[C@H](CCCNC(=N)N)NC(=O)[C@@H](NC(=O)[C@H](Cc1ccccc1)NC(=O)[C@H](CC(=O)O)NC(=O)[C@H](CCC(N)=O)NC(=O)[C@H](C)NC(=O)[C@H](CCCNC(=N)N)NC(=O)[C@H](CCCCNC(=O)COCCOCCNC(=O)COCCOCCNC(=O)CC[C@H](NC(=O)CCCCCCCCCCCCCCCCC(=O)O)C(=O)O)NC(=O)[C@H](CCCNC(=N)N)NC(=O)[C@H](CC(=O)O)NC(=O)[C@H](CC(C)C)NC(=O)[C@](C)(Cc1ccccc1)NC(=O)[C@H](CCCCN)NC(=O)[C@H](CO)NC(=O)[C@@H](NC(=O)[C@H](CC(=O)O)NC(=O)[C@H](CO)NC(=O)[C@@H](NC(=O)[C@H](Cc1ccccc1)NC(=O)[C@@H](NC(=O)CNC(=O)[C@H](CCC(N)=O)NC(=O)C(C)(C)NC(=O)[C@@H](N)Cc1c[nH]cn1)[C@@H](C)O)[C@@H](C)O)C(C)C)C(C)C)C(=O)N[C@@H](CC(C)C)C(=O)NC(C)(C)C(=O)N[C@H](C(=O)N[C@@H](CCC(=O)O)C(=O)O)[C@@H](C)O` [Peptide 421] (H-H[Aib]QGTFTSDVSK[αMeF]LDRK([AEEA-AEEA-γGlu-C18 diacid])RAQDFVRWLL[Aib]TE-OH; N-terminus assumed), for which the results for the EC50 in experiment [1] and in experiment [2] were 0.18 nM and 0.0873 nM, respectively. Further, in experiment [2], the “% Relative Potency Ratio” value was determined as 4.1.
As for `CC(C)C[C@H](NC(=O)[C@H](Cc1c[nH]c2ccccc12)NC(=O)[C@H](CCCNC(=N)N)NC(=O)[C@@H](NC(=O)[C@H](Cc1ccccc1)NC(=O)[C@H](CC(=O)O)NC(=O)[C@H](CCC(N)=O)NC(=O)[C@H](C)NC(=O)[C@H](CCCNC(=N)N)NC(=O)[C@H](CCCCNC(=O)COCCOCCNC(=O)COCCOCCNC(=O)CC[C@H](NC(=O)CCCCCCCCCCCCCCCCC(=O)O)C(=O)O)NC(=O)[C@H](CCCNC(=N)N)NC(=O)[C@H](CC(=O)O)NC(=O)[C@H](CC(C)C)NC(=O)[C@](C)(Cc1ccccc1)NC(=O)[C@H](CCCCN)NC(=O)[C@H](CO)NC(=O)[C@@H](NC(=O)[C@H](CC(=O)O)NC(=O)[C@H](CO)NC(=O)[C@@H](NC(=O)[C@H](Cc1ccccc1)NC(=O)[C@@H](NC(=O)CNC(=O)[C@H](CCC(N)=O)NC(=O)C(C)(C)NC(=O)[C@@H](N)Cc1c[nH]cn1)[C@@H](C)O)[C@@H](C)O)C(C)C)C(C)C)C(=O)N[C@@H](CC(C)C)C(=O)NC(C)(C)C(=O)N[C@H](C(=O)N[C@@H](CCC(=O)O)C(N)=O)[C@@H](C)O` [Peptide 422] (H-H[Aib]QGTFTSDVSK[αMeF]LDRK([AEEA-AEEA-γGlu-C18 diacid])RAQDFVRWLL[Aib]TE-NH2; N-terminus assumed), the EC50 in experiment [1] was found to be 0.123 nM. Also, in experiment [2], the EC50 amounted to 0.0276 nM and the “% Relative Potency Ratio” value is 8.9.
Consider `CC(C)C[C@H](NC(=O)[C@H](Cc1c[nH]c2ccccc12)NC(=O)[C@H](CCCNC(=N)N)NC(=O)[C@@H](NC(=O)[C@H](Cc1ccccc1)NC(=O)[C@H](CC(=O)O)NC(=O)[C@H](CCC(N)=O)NC(=O)[C@H](C)NC(=O)[C@H](CCCNC(=N)N)NC(=O)[C@H](CCCCNC(=O)COCCOCCNC(=O)COCCOCCNC(=O)CC[C@H](NC(=O)CCCCCCCCCCCCCCCCC(=O)O)C(=O)O)NC(=O)[C@H](CCCCN)NC(=O)[C@H](CC(=O)O)NC(=O)[C@H](CC(C)C)NC(=O)[C@](C)(Cc1ccccc1)NC(=O)[C@H](CCCCN)NC(=O)[C@H](CO)NC(=O)[C@@H](NC(=O)[C@H](CC(=O)O)NC(=O)[C@H](CO)NC(=O)[C@@H](NC(=O)[C@H](Cc1ccccc1)NC(=O)[C@@H](NC(=O)CNC(=O)[C@H](CCC(N)=O)NC(=O)C(C)(C)NC(=O)[C@@H](N)Cc1c[nH]cn1)[C@@H](C)O)[C@@H](C)O)C(C)C)C(C)C)C(=O)N[C@@H](CCCCN)C(=O)NC(C)(C)C(=O)N[C@H](C(=O)N[C@@H](CCC(=O)O)C(=O)O)[C@@H](C)O` [Peptide 423] (H-H[Aib]QGTFTSDVSK[αMeF]LDKK([AEEA-AEEA-γGlu-C18 diacid])RAQDFVRWLK[Aib]TE-OH; N-terminus assumed), for which the EC50 amounted to 2.22 nM in experiment [1] and 0.0261 nM in experiment [2]. The “% Relative Potency Ratio” value in experiment [2] was found to be 168.1.
Take `CC(C)C[C@H](NC(=O)[C@H](Cc1c[nH]c2ccccc12)NC(=O)[C@H](CCCNC(=N)N)NC(=O)[C@@H](NC(=O)[C@H](Cc1ccccc1)NC(=O)[C@H](CC(=O)O)NC(=O)[C@H](CCC(N)=O)NC(=O)[C@H](C)NC(=O)[C@H](CCCNC(=N)N)NC(=O)[C@H](CCCCNC(=O)COCCOCCNC(=O)COCCOCCNC(=O)CC[C@H](NC(=O)CCCCCCCCCCCCCCCCC(=O)O)C(=O)O)NC(=O)[C@H](CCCCN)NC(=O)[C@H](CC(=O)O)NC(=O)[C@H](CC(C)C)NC(=O)[C@](C)(Cc1ccccc1)NC(=O)[C@H](CCCCN)NC(=O)[C@H](CO)NC(=O)[C@@H](NC(=O)[C@H](CC(=O)O)NC(=O)[C@H](CO)NC(=O)[C@@H](NC(=O)[C@H](Cc1ccccc1)NC(=O)[C@@H](NC(=O)CNC(=O)[C@H](CCC(N)=O)NC(=O)C(C)(C)NC(=O)[C@@H](N)Cc1c[nH]cn1)[C@@H](C)O)[C@@H](C)O)C(C)C)C(C)C)C(=O)N[C@@H](CC(C)C)C(=O)NC(C)(C)C(=O)N[C@H](C(=O)N[C@@H](CCCCN)C(=O)O)[C@@H](C)O` [Peptide 424] (H-H[Aib]QGTFTSDVSK[αMeF]LDKK([AEEA-AEEA-γGlu-C18 diacid])RAQDFVRWLL[Aib]TK-OH; N-terminus assumed): in experiment [1], the EC50 turned out to be 0.129 nM. Also, in experiment [2], the EC50 amounted to 0.0155 nM and the “% Relative Potency Ratio” value was 16.5.
For `CC(C)C[C@H](NC(=O)[C@H](Cc1c[nH]c2ccccc12)NC(=O)[C@H](CCCNC(=N)N)NC(=O)[C@@H](NC(=O)[C@H](Cc1ccccc1)NC(=O)[C@H](CC(=O)O)NC(=O)[C@H](CCC(N)=O)NC(=O)[C@H](C)NC(=O)[C@H](CCCNC(=N)N)NC(=O)[C@H](CCCCNC(=O)COCCOCCNC(=O)COCCOCCNC(=O)CC[C@H](NC(=O)CCCCCCCCCCCCCCCCC(=O)O)C(=O)O)NC(=O)[C@H](CCCCN)NC(=O)[C@H](CC(=O)O)NC(=O)[C@H](CC(C)C)NC(=O)[C@](C)(Cc1ccccc1)NC(=O)[C@H](CCCCN)NC(=O)[C@H](CO)NC(=O)[C@@H](NC(=O)[C@H](CC(=O)O)NC(=O)[C@H](CO)NC(=O)[C@@H](NC(=O)[C@H](Cc1ccccc1)NC(=O)[C@@H](NC(=O)CNC(=O)[C@H](CCC(N)=O)NC(=O)C(C)(C)NC(=O)[C@@H](N)Cc1c[nH]cn1)[C@@H](C)O)[C@@H](C)O)C(C)C)C(C)C)C(=O)N[C@@H](CCCCN)C(=O)N[C@@H](C)C(=O)NC(C)(C)C(=O)NCC(=O)O` [Peptide 425] (H-H[Aib]QGTFTSDVSK[αMeF]LDKK([AEEA-AEEA-γGlu-C18 diacid])RAQDFVRWLKA[Aib]G-OH; N-terminus assumed) the same measures were 0.827 nM, 0.0115 nM and 142.3.
Regarding `CC(C)C[C@H](NC(=O)[C@H](Cc1c[nH]c2ccccc12)NC(=O)[C@H](CCCNC(=N)N)NC(=O)[C@@H](NC(=O)[C@H](Cc1ccccc1)NC(=O)[C@H](CC(=O)O)NC(=O)[C@H](CCC(N)=O)NC(=O)[C@H](C)NC(=O)[C@H](CCCNC(=N)N)NC(=O)[C@H](CCCCNC(=O)COCCOCCNC(=O)COCCOCCNC(=O)CC[C@H](NC(=O)CCCCCCCCCCCCCCCCC(=O)O)C(=O)O)NC(=O)[C@H](CCCCN)NC(=O)[C@H](CC(=O)O)NC(=O)[C@H](CC(C)C)NC(=O)[C@](C)(Cc1ccccc1)NC(=O)[C@H](CCCCN)NC(=O)[C@H](CO)NC(=O)[C@@H](NC(=O)[C@H](CC(=O)O)NC(=O)[C@H](CO)NC(=O)[C@@H](NC(=O)[C@H](Cc1ccccc1)NC(=O)[C@@H](NC(=O)CNC(=O)[C@H](CCC(N)=O)NC(=O)C(C)(C)NC(=O)[C@@H](N)Cc1c[nH]cn1)[C@@H](C)O)[C@@H](C)O)C(C)C)C(C)C)C(=O)N[C@@H](CC(C)C)C(=O)N[C@@H](CCCNC(=N)N)C(=O)NC(C)(C)C(=O)N[C@@H](CCCCN)C(=O)O` [Peptide 426] (H-H[Aib]QGTFTSDVSK[αMeF]LDKK([AEEA-AEEA-γGlu-C18 diacid])RAQDFVRWLLR[Aib]K-OH; N-terminus assumed), the EC50 in experiment [1] is 0.0612 nM. For the same compound, in experiment [2], the concentration giving a half-maximal response (EC50) was found to be 0.0073 nM and the “% Relative Potency Ratio” value is given as 16.6.
For the compound `CC(C)C[C@H](NC(=O)[C@H](Cc1c[nH]c2ccccc12)NC(=O)[C@H](CCC(N)=O)NC(=O)[C@@H](NC(=O)[C@H](Cc1ccccc1)NC(=O)[C@H](CC(=O)O)NC(=O)[C@H](CCCNC(=N)N)NC(=O)[C@H](C)NC(=O)[C@H](CCCNC(=N)N)NC(=O)[C@H](CCCCNC(=O)COCCOCCNC(=O)COCCOCCNC(=O)CC[C@H](NC(=O)CCCCCCCCCCCCCCCCC(=O)O)C(=O)O)NC(=O)[C@@H](NC(=O)[C@H](CC(=O)O)NC(=O)[C@H](CC(C)C)NC(=O)[C@](C)(Cc1ccccc1)NC(=O)[C@H](CCCCN)NC(=O)[C@H](CO)NC(=O)[C@@H](NC(=O)[C@H](CC(=O)O)NC(=O)[C@H](CO)NC(=O)[C@@H](NC(=O)[C@H](Cc1ccccc1)NC(=O)[C@@H](NC(=O)CNC(=O)[C@H](CCC(N)=O)NC(=O)C(C)(C)NC(=O)[C@@H](N)Cc1c[nH]cn1)[C@@H](C)O)[C@@H](C)O)C(C)C)[C@@H](C)O)C(C)C)C(=O)N[C@@H](CC(C)C)C(=O)N[C@@H](CCC(=O)O)C(=O)NC(C)(C)C(=O)NCC(N)=O` [Peptide 427], the EC50 came to 0.0472 nM in experiment [1] and 0.0124 nM in experiment [2]. Also, the “% Relative Potency Ratio” value in experiment [2] is listed as 7.5.

Broadly, the EC50 is the concentration that produces a half-maximal response.

These data come from US20250353891A1 (MEDIMMUNE LIMITED, priority 2022, published 2025).
